Source: patent US20250145631A1, “HETEROCYCLIC COMPOUND ACTING ON G12D MUTANT KRAS PROTEIN” (Astellas Pharma Inc., priority 2022, published 2025)
pIC50: −log10 of the molar value.

Legend:
Assay type in all cases: cell-based
[1] = test system: phosphorylation of ERK (Thr202/Tyr204); test: ERK phosphorylation inhibitory effect by Cell ELISA in AsPC-1 cells (Test Example 2); settings: Homo sapiens, ASPC1, overnight treatment, Cell ELISA, read-out: IC50 (ERK phosphorylation inhibition)
Outline: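 AsPC-1 cells (2.0×10^4/well, RPMI 1640 + 10% FBS) treated overnight with compounds (10 points, 10 μM to 0.3 nM final), then glyoxal-fixed and immunostained for phospho-ERK with IRDye 800CW secondary; 800-nm fluorescence read. IC50 by Sigmoid-Emax regression, normalized to DMSO (100%) and 1 μM trametinib (0%).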

[2] = test system: human G12D mutant KRAS-positive pancreatic cancer line AsPC-1; test: Non-anchorage-dependent cell growth inhibitory effect, spheroid 3D culture (Test Example 3); settings: ASPC1, 144 h, AsPC-1 spheroid 3D culture, 6 days, CellTiter Glo 2.0, read-out: IC50 (non-anchorage-dependent cell growth inhibition)
Outline: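 AsPC-1 cells grown as spheroids in RPMI 1640 with 10% FBS at 37° C, 5% CO2, then exposed to compounds (10 μM to 0.3 nM final) for 6 days. Viability read by CellTiter Glo 2.0 luminescence. IC50 from Sigmoid-Emax regression with DMSO as 100% and cell-free medium as 0%.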

KRAS G12D = biological target: T1, KRAS G12D (Homo sapiens, UniProt P01116, G12D); test: KRAS degradation activity by Cell ELISA in AsPC-1 cells (Test Example 1); settings: Cell ELISA; for Dmax: ASPC1, overnight treatment, read-out: Dmax (degradation rate at the concentration showing highest degradation); for DC50: overnight treatment, read-out: DC50 (50% degradation concentration of KRAS)
T1 construct: host or cells: AsPC-1 (human pancreatic cancer line)
T1 sequence (P01116 1-188 isoform P01116-2 G12D): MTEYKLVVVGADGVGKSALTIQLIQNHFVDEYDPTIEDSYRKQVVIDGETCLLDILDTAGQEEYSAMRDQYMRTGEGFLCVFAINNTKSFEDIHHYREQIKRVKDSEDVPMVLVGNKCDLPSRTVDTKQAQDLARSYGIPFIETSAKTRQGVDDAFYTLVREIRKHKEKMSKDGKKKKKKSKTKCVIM
Outline: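 AsPC-1 cells (2.0×10^4/well) treated overnight with compounds at 10 μM–0.3 nM (10 points), then fixed, permeabilised and stained for KRAS G12D (800 nm) and β-actin (700 nm) by in-cell ELISA. KRAS signal normalised to β-actin, DMSO set as 0% and actin-only staining as 100%; DC50 from Sigmoid-Emax regression up to Dmax.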

Compound	pIC50 [1]	pIC50 [2]	Dmax (KRAS G12D)	DC50 (KRAS G12D)
Cc1c(F)cc2[nH]ncc2c1-c1c(C2CC2)cc2c(N3C[C@@H]4C[C@H]3CN4)nc(OC3CCOCC3)nc2c1OCc1ccc(C(=O)N2CCN(Cc3ccc(CN4CCC(=O)NC4=O)cc3F)C[C@@H]2C)cc1 (atropisomer, axis not shown) [Example 26]	5.69	5.87	67%	5220 nM
Cc1c(F)cc2[nH]ncc2c1-c1c(C2CC2)cc2c(N3C[C@@H]4C[C@H]3CN4)nc(OC3CCOCC3)nc2c1OCc1ccc(C(=O)N2CCN(Cc3ccc4c(N5CCC(=O)NC5=O)nn(C)c4n3)C[C@@H]2C)cc1 (atropisomer, axis not shown) [Example 24]	6.64	6.65	78%	297 nM
Cc1c(F)cc2[nH]ncc2c1-c1c(C2CC2)cc2c(N3C[C@@H]4C[C@H]3CN4)nc(OC3CCOCC3)nc2c1OCc1ccc(C(=O)N2CCN(Cc3cccc4c(N5CCC(=O)NC5=O)nn(C)c34)CC2)cc1 (atropisomer, axis not shown) [Example 23]	5.81	5.96	61%	2810 nM
Cc1c(F)cc2[nH]ncc2c1-c1c(C2CC2)cc2c(N3C[C@@H]4C[C@H]3CN4)nc(OC3CCOCC3)nc2c1OCc1ccc(C(=O)N2CCN(CCOc3cccc(N4CCC(=O)NC4=O)c3)CC2)cc1 (atropisomer, axis not shown) [Example 28]	5.66	5.70	54%	5530 nM
CO[C@H](C)COc1cc(O[C@H]2CCNC2)c2cc(C3CC3)c(-c3c(C)c(F)cc4[nH]ncc34)c(OCc3ccc(C(=O)N4CCN(Cc5ccc6c(c5)n(C)c(=O)n6C5CCC(=O)NC5=O)C[C@@H]4C)cc3)c2n1 (stereo partly shown) [Example 44]	7.16	6.91	74%	41 nM
Cc1c(F)cc2[nH]ncc2c1-c1c(C2CC2)cc2c(N3C[C@@H]4C[C@H]3CN4)nc(OC3CCOCC3)nc2c1OCc1ccc(C(=O)N2CCN(Cc3ccc4c(n3)n(C)c(=O)n4C3CCC(=O)NC3=O)CC2)cc1 (stereo partly shown) [Example 11]	7.23	6.85	84%	58 nM
Cc1c(F)cc2[nH]ncc2c1-c1c(C2CC2)cc2c(N3C[C@@H]4C[C@H]3CN4)nc(OC3CCOCC3)nc2c1OCc1ccc(C(=O)N2CCN(Cc3ccc4c(c3)CN(C3CCC(=O)NC3=O)C4=O)C[C@@H]2C)cc1 (stereo partly drawn) [Example 33, 3-(5-{[(3S)-4-{4-[({(7M)-6-cyclopropyl-4-[(1S,4S)-2,5-diazabicyclo[2.2.1]heptan-2-yl]-7-(6-fluoro-5-methyl-1H-indazol-4-yl)-2-[(oxan-4-yl)oxy]quinazolin-8-yl}oxy)methyl]benzoyl}-3-methylpiperazin-1-yl]methyl}-1-oxo-1,3-dihydro-2H-isoindol-2-yl)piperidine-2,6-dione]	6.99	6.85	88%	79 nM
Cc1c(F)cc2[nH]ncc2c1-c1c(C2CC2)cc2c(O[C@H]3CCNC3)cc(OC[C@H]3CCCO3)nc2c1OCc1ccc(C(=O)N2CCN(Cc3ccc4c(c3)n(C)c(=O)n4C3CCC(=O)NC3=O)C[C@@H]2C)cc1 (atropisomer, axis not shown) [Example 32]	7.16	7.22	78%	46 nM
Cc1c(F)cc2[nH]ncc2c1-c1c(C2CC2)cc2c(N3C[C@@H]4C[C@H]3CN4)nc(OC3CCOCC3)nc2c1OCc1ccc(C(=O)N2CCN(Cc3ccc4c(c3)n(C)c(=O)n4C3CCC(=O)NC3=O)C[C@H]2C)cc1 (stereo partly shown) [Example 9]	7.16	7.05	65%	55 nM
CO[C@@H](C)COc1nc(O[C@H]2CCNC2)c2cc(C3CC3)c(-c3c(C)c(F)cc4[nH]ncc34)c(OCc3ccc(C(=O)N4CCN(Cc5ccc6c(c5)n(C)c(=O)n6C5CCC(=O)NC5=O)C[C@@H]4C)cc3)c2n1 (stereo partly shown) [Example 43]	7.89	7.48	90%	9 nM
CO[C@@H](C)COc1nc(N(C)[C@@H]2CCNC2)c2cc(C3CC3)c(-c3c(C)c(F)cc4[nH]ncc34)c(OCc3ccc(C(=O)N4CCN(Cc5ccc6c(c5)n(C)c(=O)n6C5CCC(=O)NC5=O)C[C@@H]4C)cc3)c2n1 (stereo partly shown) [Example 35]	5.82	5.95	48%	3670 nM
CO[C@H](C)COc1nc(N2C[C@@H]3C[C@H]2CN3)c2cc(C3CC3)c(-c3c(C)c(F)cc4[nH]ncc34)c(OCc3ccc(C(=O)N4CCN(Cc5ccc6c(c5)n(C)c(=O)n6C5CCC(=O)NC5=O)C[C@@H]4C)cc3)c2n1 (stereo partly shown) [Example 38]	7.51	7.29	86%	22 nM
Cc1c(F)cc2[nH]ncc2c1-c1c(C2CC2)cc2c(N3C[C@@H]4C[C@H]3CN4)nc(OC3CCOCC3)nc2c1OCc1ccc(C(=O)N2CCN(Cc3ccc4c(N5CCC(=O)NC5=O)n(C)nc4c3)C[C@@H]2C)cc1 (atropisomer, axis not shown) [Example 22]	6.55	6.89	84%	114 nM
Cc1c(F)cc2[nH]ncc2c1-c1c(C2CC2)cc2c(N3C[C@@H]4C[C@H]3CN4)nc(OC3CCOCC3)nc2c1OCc1ccc(C(=O)N2CCN(Cc3ccc4c(N5CCC(=O)NC5=O)nn(C)c4c3)CC2)cc1 (atropisomer, axis not shown) [Example 13]	6.22	5.91	66%	408 nM
Cc1c(F)cc2[nH]ncc2c1-c1c(C2CC2)cc2c(N3C[C@@H]4C[C@H]3CN4)nc(OC3CCOCC3)nc2c1OCc1ccc(C(=O)N2CCN(Cc3ccn4c(N5CCC(=O)NC5=O)cnc4c3)C[C@@H]2C)cc1 (atropisomer, axis not shown; (M)) [Example 34, 1-(7-{[(3S)-4-{4-[({(7M)-6-cyclopropyl-4-[(1S,4S)-2,5-diazabicyclo[2.2.1]heptan-2-yl]-7-(6-fluoro-5-methyl-1H-indazol-4-yl)-2-[(oxan-4-yl)oxy]quinazolin-8-yl}oxy)methyl]benzoyl}-3-methylpiperazin-1-yl]methyl}imidazo[1,2-a]pyridin-3-yl)-1,3-diazinane-2,4-dione]	6.70	6.32	85%	202 nM
Cc1c(F)cc2[nH]ncc2c1-c1c(C2CC2)cc2c(N3C[C@@H]4C[C@H]3CN4)nc(OC[C@H]3CCCO3)nc2c1OCc1ccc(C(=O)N2CCN(Cc3ccc4c(c3)n(C)c(=O)n4C3CCC(=O)NC3=O)C[C@@H]2C)cc1 (stereo partly shown) [Example 37]	7.39	7.19	87%	30 nM
